Test results from patent US20100227921A1, “AMINO ACID AND PEPTIDE CARBAMATE PRODRUGS OF […] USES THEREOF” (SHIRE LLC, priority 2009, published 2010).
Values joined by “and” are separate entries in the source; they are usually repeats but may differ in a detail not shown here. Equal entries are not always repeated. Marks after values point to notes of the source that are not given here.

Key:
[1] = Comparative bioavailability after oral or intravenous administration to monkeys (plasma LC-MS-MS); format: in vivo, cynomolgus monkey; settings: for half-life: read-out: t½ of tapentadol valine carbamate (converted); for Tmax: cynomolgus
Procedure: Test substances i.e., tapentadol and tapentadol valine carbamate were administered (either intravenously or orally) to a group of five male cynomolgus monkeys in a three way crossover design. The oral doses were given at 1 mg tapentadol base equivalents/kg while the intravenous dose was 0.5 mg/kg
Blood samples were taken at various times after administration and submitted to analysis for the parent drug and tapentadol valine carbamate using a validated LC-MS-MS assay. Pharmacokinetic parameters derived from the plasma analytical data were determined using Win Nonlin.

[2] = Comparative in vivo bioavailability study in the dog (oral gavage, plasma LC-MS-MS)
Procedure: Test substances (i.e., tapentadol (1 mg/kg) and tapentadol valine carbamate (0.8 mg tapentadol base equivalents/kg)) were administered by oral gavage to a group of five dogs (dog nos. 1, 2, 3, 4 and 5) in a two-way crossover design. The characteristics of the test animals are set out in Table 3.
(§1) Blood samples were taken at various times after administration and submitted to analysis for the parent drug and pro-drug using a validated LC-MS-MS assay. Pharmacokinetic parameters derived from the plasma analytical data were determined using Win Nonlin.

[3] = system: guinea pig small intestine myenteric plexus longitudinal muscle; assay: Electrical field stimulation response of isolated guinea pig small intestine smooth muscle (ex vivo); settings: isolated guinea pig ileum
Procedure: Strips of guinea pig small intestine myenteric plexus longitudinal muscle and mounted between platinum ring electrodes. The tissue was stretched to a steady tension of about 1 g and changes in force production were recorded using sensitive transducers.
The optimal voltage for stimulation was determined while the tissue was paced with electrical field stimulation (EFS) at 14 Hz, with a pulse width of 0.5 msec (Trains of pulses for 20 seconds, every 50 seconds).
EFS at optimal voltage continued throughout the protocol (stable responses=“baseline measurement of EFS”).
The 3 test conditions employed were as follows:
(1) Vehicle (deionised water, added at equivalent volume additions to test articles), (2) Tapentadol at 6 concentrations (10 nM, 100 nM, 1 μM, 3 μM, 10 μM & 30 μM) (3) Tapentadol valine carbamate at 6 concentrations (10 nM, 100 nM, 1 μM, 3 μM, 10 μM, & 30 μM).
Following 10 minutes of baseline EFS, first addition of test article or vehicle (deionized water) was performed.
Test concentrations were added in a non-cumulative manner with PSS washes between each addition. Next, TTX (Na+ channel blocker) was added to confirm EFS responses were elicited via nerve stimulation. EFS was then stopped.

[4] = Comparative bioavailability after oral administration to rats (plasma LC-MS-MS); format: in vivo; settings: male rat, oral tapentadol valine carbamate 10 mg tapentadol free base equiv/kg, individual animals 6-10
Procedure: Test substances, i.e., tapentadol or tapentadol valine carbamate were administered by oral gavage to groups of male Sprague Dawley rats.
as §1

[5] = male, cynomolgus monkey, plasma, po, 1 mg tapentadol free base equiv/kg, male monkey, oral tapentadol valine carbamate 1 mg tapentadol free base equiv/kg, individual animals 1-5
[6] = male, cynomolgus monkey, plasma, po, 1 mg tapentadol free base equiv/kg, male monkey, oral tapentadol valine carbamate 1 mg tapentadol free base equiv/kg, mean
[7] = oral tapentadol valine carbamate 0.8 mg tapentadol base equiv/kg, individual dogs 1-5

CC[C@H](c1cccc(OC(=O)N[C@H](C(=O)O)C(C)C)c1)[C@H](C)CN(C)C (racemic) [Tapentadol valine carbamate, 2-[3-(3-Dimethylamino-1-ethyl-2-methyl-propyl)-phenoxycarbonylamino]-3-methyl-butyric acid]
half-life ([1]; male, cynomolgus monkey, plasma, po, 1 mg tapentadol free base equiv/kg, male monkey, oral tapentadol valine carbamate 1 mg tapentadol free base equiv/kg, calculated as ln2/mean k): 2.47 h
half-life [1, 5]: 2.28 h
AUC [1, 6]: 316 ng·h/mL
Cmax [1, 6]: 164 ng/mL
AUC(0-t) ([1]; male, cynomolgus monkey, plasma, po, 1 mg tapentadol free base equiv/kg, male monkey, oral tapentadol valine carbamate 1 mg tapentadol free base equiv/kg, mean, read-out: AUCt of tapentadol valine carbamate): 309 ng·h/mL
Tmax [1, 5]: 0.5 h
Tmax ([1]; male, cynomolgus monkey, plasma, po, 1 mg tapentadol free base equiv/kg, male monkey, oral tapentadol valine carbamate 1 mg tapentadol free base equiv/kg, median): 0.5 h
prodrug absorbed after oral administration ([1]; monkey, comparison of AUC after oral (Table 13) and intravenous dosing (Table 12)): at least 36%
half-life ([2]; Beagle, plasma, po, 0.8 mg/kg, oral tapentadol valine carbamate 0.8 mg tapentadol base equiv/kg, calculated as ln2/mean k, read-out: t½ of tapentadol valine carbamate (converted)): 4.8 h
Cmax ([2]; Beagle, plasma, po, 0.8 mg/kg, oral tapentadol valine carbamate 0.8 mg tapentadol base equiv/kg, individual dogs 1-5, read-out: Cmax of tapentadol valine carbamate): 42.8 ng/mL
AUC ([2]; Beagle, plasma, po, 0.8 mg/kg, oral tapentadol valine carbamate 0.8 mg tapentadol base equiv/kg, mean of 5 dogs, read-out: AUC of tapentadol valine carbamate): 205 ng·h/mL
AUC(0-t) ([2]; Beagle, plasma, po, 0.8 mg/kg, oral tapentadol valine carbamate 0.8 mg tapentadol base equiv/kg, mean of 5 dogs, read-out: AUCt of tapentadol valine carbamate): 192 ng·h/mL
Cmax ([2]; Beagle, plasma, po, 0.8 mg/kg, oral tapentadol valine carbamate 0.8 mg tapentadol base equiv/kg, mean of 5 dogs, read-out: Cmax of tapentadol valine carbamate): 53.4 ng/mL
Tmax ([2]; Beagle, plasma, po, 0.8 mg/kg, oral tapentadol valine carbamate 0.8 mg tapentadol base equiv/kg, median of 5 dogs, read-out: Tmax of tapentadol valine carbamate): 1 h
increase of duration of sustainment of active drug in the blood ([2]; following administration of the prodrug compared to tapentadol alone): two to three fold
duration of drug sustainment in plasma ([2]; oral prodrug vs oral tapentadol): doubling
AUC of tapentadol valine carbamate [2, 7]: 157 ng·h/mL and 126 ng·h/mL and 272 ng·h/mL and 221 ng·h/mL and 252 ng·h/mL
AUCt of tapentadol valine carbamate [2, 7]: 131 ng·h/mL and 119 ng·h/mL and 260 ng·h/mL and 208 ng·h/mL and 241 ng·h/mL
Cmax of tapentadol valine carbamate [2, 7]: 45.3 ng/mL and 62.3 ng/mL and 46.4 ng/mL and 70.0 ng/mL
T>50%Cmax of tapentadol valine carbamate [2, 7]: 1.5 h (4×) and 0.5 h
Tmax of tapentadol valine carbamate [2, 7]: 2 h
t½ of tapentadol valine carbamate [2, 7]: 6.7 h and 3.0 h and 5.0 h and 5.9 h and 5.3 h
T>50%Cmax of tapentadol valine carbamate ([2]; oral tapentadol valine carbamate 0.8 mg tapentadol base equiv/kg, median of 5 dogs): 1.5^a h
EC50 ([3]; Cavia porcellus, EFS 14 Hz, non-cumulative 10 nM-30 μM, read-out: approximate EC50, effect on electrical field stimulation response): ~10 µM
reduction in the opioid effects on ileal smooth muscle compared to tapentadol ([3]; EFS): 50 fold
concentration at 0.5 h ([4]; Sprague Dawley, plasma, 0.5 h, read-out: Plasma concentration of tapentadol valine carbamate): 64.5 ng/mL
concentration at 1 h ([4]; Sprague Dawley, plasma, 1 h, read-out: Plasma concentration of tapentadol valine carbamate): 72.4 ng/mL
concentration at 2 h ([4]; Sprague Dawley, plasma, 2 h, read-out: Plasma concentration of tapentadol valine carbamate): 85.8 ng/mL
concentration at 4 h ([4]; Sprague Dawley, plasma, 4 h, read-out: Plasma concentration of tapentadol valine carbamate): 42.5 ng/mL
concentration at 6 h ([4]; Sprague Dawley, plasma, 6 h, read-out: Plasma concentration of tapentadol valine carbamate): 30.5 ng/mL
Plasma concentration of tapentadol valine carbamate ([4]; 0.5 h): 79.5 ng/mL and 86.5 ng/mL and 77.5 ng/mL and 111 ng/mL
